# Patent US12221422B2, “Compounds and their use for the treatment of alpha1-antitrypsin deficiency” (CENTESSA PHARMACEUTICALS (UK) LIMITED, priority 2018, dated 2025)
# How the values were obtained:
# [1] = test system: TA98, TA100, WP2 uvrA, TA1535, TA1537 bacterial strains; assay: Bacterial reverse mutation test; details: up to 5000 μg/plate, presence and absence of S-9 mix
# Experimental: The purpose of the bacterial reverse mutation test is to assess the mutagenic potential of the test item by its ability to revert the specified bacterial strains from auxotrophic growth to prototrophy. The assay detects point (gene) mutations at specific histidine or tryptophan loci, which may be induced by compounds that cause base pair substitutions or frameshift mutations in the genome of these organisms. Assays were performed in the presence and absence of an exogenous mammalian oxidative metabolising system (S-9 mix, a liver post-mitochondrial fraction derived from the livers of Aroclor 1254 treated rats), to mimic mammalian metabolism. The test methodology was based on established procedures for bacterial mutagenicity testing.
# N,N-dimethyl-4-((6-oxopyrimidin-1(6H)-yl)methyl)benzamide was tested up to the guideline regulatory maximum dose level of 5000 μg/plate in all strains in the presence and absence of […].
# There were no increases in revertant numbers, greater than the defined fold-increases (to twice the relevant negative control value for TA98, TA100 or WP2 uvrA or three times the relevant negative control value for TA1535 or TA1537), in any strain at any dose level of N,N-dimethyl-4-((6-oxopyrimidin-1(6H)-yl)methyl)benzamide, in the presence or absence of S-9 mix, under plate incorporation conditions.
# human Z A1AT = human Z A1AT (Homo sapiens, UniProt P01009, E366K); assay: A1AT cell secretion assay using HEK-Z cells (ELISA); format: cell-based; design: expressed in transfected cells; host or cells: HEK-Z (HEK-EBNA cells containing the Z A1AT plasmid); details: HEK-Z cells, 10, 33, 100 and 333 nM, 48 h, cell supernatant
# Chain of human Z A1AT (P01009 25-418 E366K): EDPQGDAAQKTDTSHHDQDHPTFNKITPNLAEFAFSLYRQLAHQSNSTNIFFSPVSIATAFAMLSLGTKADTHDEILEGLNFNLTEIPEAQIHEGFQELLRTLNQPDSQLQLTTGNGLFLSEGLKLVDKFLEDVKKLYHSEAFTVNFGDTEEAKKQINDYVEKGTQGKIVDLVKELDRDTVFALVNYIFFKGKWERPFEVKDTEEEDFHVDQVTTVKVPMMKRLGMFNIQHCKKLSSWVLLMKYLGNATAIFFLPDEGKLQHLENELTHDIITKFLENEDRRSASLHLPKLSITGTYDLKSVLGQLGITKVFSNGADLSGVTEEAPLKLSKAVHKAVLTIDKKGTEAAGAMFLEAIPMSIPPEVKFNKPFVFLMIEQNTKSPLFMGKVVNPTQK
# Experimental: HEK-Z cells, a human embryonic kidney cell line stably transfected with the human Z A1AT gene, were plated into 96 well plates (3.0×10^5 cells/ml with 200 μl of media/well) overnight at 37° C. in a humidified atmosphere containing 5% CO2. Following incubation cells were washed with 200 μl serum-free media three times and media was replaced with treatments in quadruplicate using serum-free media containing either vehicle, 10 μM suberanilohydroxamic acid (SAHA), N,N-dimethyl-4-((6-oxopyrimidin-1(6H)-yl)methyl)benzamide (at concentrations of 10, 33, 100 and 333 nM), N,N-(bis-methyl-d3)-4-((6-oxopyrimidin-1(6H)-yl)methyl)benzamide (at concentrations of 10, 33, 100 and 333 nM) or N-methyl-4-((6-oxopyrimidin-1(6H)-yl)methyl)benzamide (at concentrations of 10, 33, 100 and 333 nM) for 48 h in a 37° C. incubator in a final volume of 200 μl. At the end of the incubation step the supernatants were removed from the wells, centrifuged at 1000×g at 4° C. for 10 min and were assayed for human A1AT levels by ELISA (Human Serpin A1/α1-antitrypsin duo set ELISA, R& D Systems, DY1268) per manufacturer's instructions.
# (§1) Briefly, a 96 well plate was coated with human A1AT capture antibody overnight at room temperature (1:180 dilution from stock, 100 μl final volume/well). The capture antibody was then removed and wells washed three times with 300 μl wash buffer (0.05% Tween 20 in PBS) and then 200 μl reagent diluent (25% Tween 20 in PBS) was incubated in each well for 1 h at room temperature. […] After which, 50 μl stop solution (2M H2SO4) was added and optical density (OD) of each well was read at 450 nm with 570 nm blank subtracted from each well using a microplate reader. A 4 parameter logistic curve was constructed using GraphPad Prism 7 and A1AT concentrations were determined in each sample by interpolation from a standard curve and multiplying by the appropriate dilution factor.
# (§2) The amount of A1AT secreted from transfected HEK-EBNA cells into the media was measured by ELISA. […]
# human M A1AT = biological target: T1, human M A1AT (Homo sapiens, UniProt P01009); assay: A1AT cell secretion assay using HEK-M cells (ELISA); format: cell-based; details: 10 μM, 48 h
# T1 construct: expressed in transfected cells; host or cells: HEK-M (HEK-EBNA cells containing the M A1AT plasmid)
# T1 sequence (P01009 25-418): as the sequence (P01009 25-418 E366K) above, with K342E counted along it
# Experimental: HEK-M cells, a human embryonic kidney cell line stably transfected with the human M A1AT gene, were plated into 96 well plates (3.0×10^5 cells/ml with 200 μl of media/well) overnight at 37° C. in a humidified atmosphere containing 5% CO2. Following incubation cells were washed with 200 μl serum-free media three times and media was replaced with serum-free media containing either vehicle, 10 μM suberanilohydroxamic acid (SAHA) or a compound of the invention (at 10 μM) in replicates of six for 48 h in a 37° C. incubator in a final volume of 200 μl. […]
# as §1, with “volume/well).” for “volume/well). The capture antibody was then removed and wells washed three times with 300 μl wash buffer (0.05% Tween 20 in PBS) and then 200 μl reagent diluent (25% Tween 20 in PBS) was incubated in each well for 1 h at room temperature.”
# as §2
structure (smiles),measurement,setting,value
"CN(C)C(=O)c1ccc(Cn2cnccc2=O)cc1 [N,N-dimethyl-4-((6-oxopyrimidin-1(6H)-yl)methyl)benzamide]",mutagenicity (revertant numbers),"[1]; all strains, plate incorporation",not mutagenic
same,toxicity to bacterial strains,[1],no evidence of toxicity
same,secretion of Z A1AT as measured by ELISA,human Z A1AT,stimulates secretion of Z A1AT in a dose dependent manner
same,secretion of M A1AT as measured by ELISA,human M A1AT,does not stimulate secretion of M A1AT
